Non-standard residues stand in square brackets, D forms with d. Residues, ends and D or L forms follow the SMILES beside them. *: point of attachment. Succinimide(1-Et,3-yl) = CCN1C(=O)CC(*)C1=O

From patent US20100075907A1, “NEUROMEDIN U RECEPTOR AGONISTS AND USES THEREOF” (priority 2006, published 2010) come the findings set out here.

One data set has as its target T1, rat NMUR1-TTG (Rattus norvegicus, UniProt Q9JJI5).
T1 sequence (Q9JJI5 1-425): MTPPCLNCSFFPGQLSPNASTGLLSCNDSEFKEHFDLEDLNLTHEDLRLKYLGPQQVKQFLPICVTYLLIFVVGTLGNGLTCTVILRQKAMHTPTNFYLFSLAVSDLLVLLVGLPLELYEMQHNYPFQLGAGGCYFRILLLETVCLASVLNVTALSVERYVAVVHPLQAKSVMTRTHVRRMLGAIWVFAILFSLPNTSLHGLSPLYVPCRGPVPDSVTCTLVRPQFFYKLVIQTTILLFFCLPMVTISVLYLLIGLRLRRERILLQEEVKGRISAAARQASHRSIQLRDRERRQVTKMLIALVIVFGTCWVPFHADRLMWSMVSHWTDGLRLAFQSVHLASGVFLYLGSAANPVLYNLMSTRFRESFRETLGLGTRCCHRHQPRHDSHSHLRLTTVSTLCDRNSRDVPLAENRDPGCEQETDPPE
Nature of the data set: FLIPR calcium mobilization assay, rat NMUR1-TTG. Set-up: expressed in transfected cells; host or cells: FLP-In CHO or HEK-293 FLP-In cells (pcDNA5). Format: cell-based. The following applies: functional data, rat R1-TTG. For orientation: A change in cytosolic calcium serves as a functional read-out for many receptors and channels.

In another data set the target is T2, hNMUR1 (Homo sapiens, UniProt Q9HB89).
T2 sequence (Q9HB89 1-426): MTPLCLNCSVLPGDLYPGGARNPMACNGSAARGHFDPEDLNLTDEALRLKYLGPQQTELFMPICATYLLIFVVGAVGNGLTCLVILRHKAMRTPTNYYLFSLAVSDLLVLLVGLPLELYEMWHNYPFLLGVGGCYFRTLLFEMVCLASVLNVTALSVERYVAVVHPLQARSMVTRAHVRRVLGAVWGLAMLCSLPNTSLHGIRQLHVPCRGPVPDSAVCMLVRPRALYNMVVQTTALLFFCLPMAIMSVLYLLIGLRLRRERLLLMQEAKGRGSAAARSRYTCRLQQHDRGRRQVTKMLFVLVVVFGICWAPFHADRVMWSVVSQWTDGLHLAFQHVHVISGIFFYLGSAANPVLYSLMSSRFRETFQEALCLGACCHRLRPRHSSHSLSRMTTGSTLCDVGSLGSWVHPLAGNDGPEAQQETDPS
Put plainly: FLIPR calcium mobilization assay, human NMUR1. Set-up: expressed in transfected cells; host or cells: FLP-In CHO or HEK-293 FLP-In cells (pcDNA5); HEK-293/aeq17 lines (pIRES-puro) were also made. Type of data set: cell-based. The following applies: functional data, human R1.

A further data set has as its target mouse NMUR2 (Mus musculus, UniProt Q8BZ39). Nature of the data set: 125I-hNMU-25 binding assay, mouse R2. Set-up: expressed in transfected cells; host or cells: HEK-293 FLP-In cells (pcDNA5). The note with it: for IC50: binding. The procedure:
Confluent cell monolayers expressing NMU receptors (the HEK cells described above) were harvested with phosphate buffered saline, collected by centrifugation, and resuspended in membrane buffer (50 mM TrisCl pH 7.4, 5 mM MgCl2, 1× Protease Inhibitor Cocktail, 10 μM phosphoramidon). After the cell pellet was homogenized, the solution was centrifuged at 18,000 rpm for 20 minutes at 4° C. The pellet was resuspended in membrane buffer to yield a final concentration of 0.5-5 μg/μL of membrane and stored at −80° C.
Experiments were performed in assay buffer (25 mM TrisCl, pH 7.4, 10 mM MgCl2, 2 mM EDTA, 1× Protease Inhibitor Cocktail, 100 μg/mL Bacitricin, 10 μM phosphoramidon) in 200 μL volumes in a 96-well format using 2-5 μg of membrane and 0.1 nM ^125I-hNMU-25 (about 12,000 cpm/well). For non-specific binding, 1 μM hNMU-25 was added. About 5 μL of peptides were added to measure antagonist activity, and the entire reaction was incubated at room temperature with shaking for 80 minutes. The reaction was terminated by rapid filtration through 0.3% poly-ethylenimine presoaked Millipore 96-well filter plates and washed with ice-cold buffer (5 mM TrisCl pH 7.4, 10 mM MgCl2, 2.5 mM EDTA, 0.04% Triton X-100). Plates were air-dried overnight at room temperature and recovered radioactivity was determined by standard scintillation counting. IC50 values were determined using GraphPad Prism software.
Concentration-response curves and radioligand-binding data were fitted using Prism (GraphPad Software). Results are summarized below in Tables 8 and 9.

The next data set in a line: in vitro. The following applies: human, plasma.

mouse NMUR2, sequence (Q8BZ39 whole entry): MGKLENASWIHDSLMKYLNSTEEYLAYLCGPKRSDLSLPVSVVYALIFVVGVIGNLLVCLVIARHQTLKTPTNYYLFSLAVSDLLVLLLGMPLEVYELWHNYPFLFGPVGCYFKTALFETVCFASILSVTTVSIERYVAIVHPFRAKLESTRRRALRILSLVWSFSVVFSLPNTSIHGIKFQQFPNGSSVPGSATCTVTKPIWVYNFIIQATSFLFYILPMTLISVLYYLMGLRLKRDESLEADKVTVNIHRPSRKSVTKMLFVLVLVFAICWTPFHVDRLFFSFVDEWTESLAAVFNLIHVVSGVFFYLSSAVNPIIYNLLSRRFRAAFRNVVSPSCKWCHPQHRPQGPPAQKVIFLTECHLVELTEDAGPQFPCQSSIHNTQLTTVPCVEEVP

`CC(C)C[C@@H](NC(=O)[C@H](Cc1ccccc1)NC(=O)[C@H](Cc1ccc(O)cc1)NC(=O)CNC(=O)[C@H](CCCNC(=N)N)NC(=O)[C@H](CO)NC(=O)[C@H](CCC(N)=O)NC(=O)[C@H](CO)NC(=O)[C@H](C)NC(=O)[C@H](Cc1ccccc1)NC(=O)[C@@H]1CCCN1C(=O)[C@H](CO)NC(=O)[C@H](CCC(N)=O)NC(=O)[C@H](Cc1ccccc1)NC(=O)[C@H](CCC(=O)O)NC(=O)[C@H](CCC(=O)O)NC(=O)[C@H](CC(=O)O)NC(=O)[C@@H](NC(=O)[C@H](CCCNC(=N)N)NC(=O)[C@@H](N)Cc1ccccc1)C(C)C)C(=O)N[C@@H](Cc1c[nH]c2ccccc12)C(=O)N[C@@H](CCCNC(=N)N)C(=O)N1CCC[C@H]1C(=O)N[C@@H](CCCNC(=N)N)C(=O)N[C@@H](CC(N)=O)C(N)=O` [Agonist H] (H-FRVDEEFQSPFASQSRGYF[dL]WRPRN-NH2; N-terminus assumed): the IC50 on rat NMUR1-TTG was 153 nM; on hNMUR1 it was 1.25 nM; on mouse NMUR2, greater than 1000 nM. Besides, the “% inhibition of NMU-25 binding” value at mouse NMUR2 was found to be 20%.

Regarding `CCN1C(=O)CC(SC[C@H](NC(C)=O)C(=O)N[C@@H](Cc2ccccc2)C(=O)N[C@@H](CCCNC(=N)N)C(=O)N[C@H](C(=O)N[C@@H](CC(=O)O)C(=O)N[C@@H](CCC(=O)O)C(=O)N[C@@H](CCC(=O)O)C(=O)N[C@@H](Cc2ccccc2)C(=O)N[C@@H](CCC(N)=O)C(=O)N[C@@H](CO)C(=O)N2CCC[C@H]2C(=O)N[C@@H](Cc2ccccc2)C(=O)N[C@@H](C)C(=O)N[C@@H](CO)C(=O)N[C@@H](CCC(N)=O)C(=O)N[C@@H](CO)C(=O)N[C@@H](CCCNC(=N)N)C(=O)NCC(=O)N[C@@H](Cc2ccc(O)cc2)C(=O)N[C@@H](Cc2ccccc2)C(=O)N[C@H](C)C(=O)N[C@@H](Cc2c[nH]c3ccccc23)C(=O)N[C@@H](CCCNC(=N)N)C(=O)N2CCC[C@H]2C(=O)N[C@@H](CCCNC(=N)N)C(=O)N[C@@H](CC(N)=O)C(N)=O)C(C)C)C1=O` (stereo partly shown) [NMU13] (Ac-C(Succinimide(1-Et,3-yl))FRVDEEFQSPFASQSRGYF[dA]WRPRN-NH2), on mouse NMUR2, the “% inhibition of NMU-25 binding” value turned out to be 30% and the IC50 is greater than 1000 nM.

On to “H-FRVDEEFQSPFASQSRGYFLFRPRN-NH2 [hNMU-25, reference compound]”, for which the IC50 worked out at 1 nM on rat NMUR1-TTG, 0.2 nM on hNMUR1 and 0.2 nM on mouse NMUR2. Besides, in “in vitro”, the half-life at 1 μM is less than 16 h.

A word on the IC50: it is the concentration needed to halve the response being measured. What is called half-life is the time needed for the level to fall by half in the phase considered. Low readings indicate rapid decline, high ones slow decline.
